From US20040259783A1, “Pharmaceutical compositions of marine sponge microciona prolifera” (priority 2001, published 2004) come the findings set out here.

The test system of assay [1] is rat aortic smooth muscle cells, A-10. Briefly: Smooth muscle cell migration in vitro assay (scrape injury). In kind it is cell-based. Conditions: concentration giving 100% inhibition of smooth muscle cell motility, incubation up to 24 hrs. As for the experimental part:
The following in vitro assays were conducted to illustrate the effect of peptides, carbohydrates and extract (2.7K) on the smooth muscle cell migration. The cells used in the following example were rat aortic smooth muscle cells, A-10. The cells were seeded at 2.5×10^5 cells/well in 6 well plates using Dulbecco's Modified Eagle Medium (Gibco BRL Cat. # 11885-084),10% FBS and 1% Antibiotic Antimycotic (Gibco BRL Cat. # 15240). Confluency of cells after about 8 hrs was between 80˜90%. Cells were injured with the single edge cell scraper (one injury/well) then washed twice with PBS and treated with peptides B-1 (SEQ ID NO:1), B-2 (SEQ ID NO:2 ), B-3 (SEQ ID NO: 3), B-6, (SEQ ID NO: 4), B-9(SEQ ID NO:5), B-10(SEQ ID NO:6) AND B-11(SEQ ID NO: 7) at concentrations ranging from 10 μg/ml ml to 100 μg/ml. Images were taken using a X5 modulation objective (Zeiss, Germany) attached to a Zeiss Axiovert 100 inverted microscope equipped with Hoffman Modulation contrast optical filters (Greenvale, N.Y.).
The images were taken at zero time and following the incubation of smooth muscle cells with peptide, carbohydrates and extracts for a period of up to 24 hrs (FIGS. 1, 2, 3 and 4).

Another assay relates to EAE mouse model. The experiment in a line: EAE mouse model (acute EAE induced with MBP and PTX). The following applies: 5 mg/kg daily; for clinical signs of MS symptoms: improvement in mean clinical score and delay in progression to disability; for mean clinical score: day 15, scale of 0 to 5, PBS treated mice 1.7 (B-9 study), 1.5 (B-1 study). The assay is classed as in vivo. The method, then: The EAE mouse model is the standard animal model used for testing therapeutic compounds in the treatment of multiple sclerosis (MS). Acute EAE was induced by immunization of 3 months old SJL/J female mice (Jackson Lab.; Bar Harbor, Me.) with the MBP (myelin basic protein) and PTX (pertussis toxin). Each animal received an s.c. injection at tail base of 200 μg MBP in 0.1 ml of CFA and received an i.v. injection of 200 ng of PTX; pertussis toxin was injected again 48 hours later. Mice (4 animals per group) were treated with the peptide B-1 (SEQ ID NO: 1) or peptide B-9 (SEQ ID NO: 5) at a dose of 5 mg/kg daily; injections starting on the day of first immunization. Treatment was stopped at time of sacrifice. Mice were monitored daily from day 7 after immunization for clinical signs of EAE and were scored on a scale of 0 to 5. A score of 0 represented the absence of signs while a score of 5 was given to moribund animals.

Where [2] appears, read: MAF carbohydrates and MAF 2.7 K extract.

For `CC(=O)N[C@H]1[C@H](O[C@@H]2[C@H](O)[C@H](C)OC(O)[C@H]2O)O[C@H](CO)[C@@H](O)[C@@H]1O` (stereo partly shown) [RR-1 disaccharides, GlcNAcβ1-3Fuc], in assay [1] (setting [2]), the “100% Inhibition of Cell Motility” value is 5˜10 μg/mL. As for “CFLTPHGVELHK (artificial peptide derived from Microciona prolifera) [Peptide B-10, 12 amino acid synthetic peptide derived from MAF]”, the “100% Inhibition of Cell Motility” value in assay [1] (MAFp3 peptides) was 100 µg/mL. Regarding “EDQLDAMNLS (artificial peptide derived from Microciona prolifera) [Peptide B-3, 10 amino acid synthetic peptide derived from MAF]”, the “100% Inhibition of Cell Motility” value in assay [1] (MAFp3 peptides) stood at 50 µg/mL.

As to “GSGIGDEPTTS (artificial peptide derived from Microciona prolifera) [Peptide B-6, 11 amino acid synthetic peptide derived from MAF]”, the “100% Inhibition of Cell Motility” value in assay [1] (MAFp3 peptides) was 50˜75 μg/ml. Turning to “GVSVRRYRNRVRI (listed as Microciona prolifera) [Peptide B-1]”, the “100% Inhibition of Cell Motility” value in assay [1] (MAFp3 peptides) amounted to 100 µg/mL. In addition, in the assay with EAE mouse model, the “clinical signs of MS symptoms” value was “significant attenuation” and the mean clinical score was found to be 0.7.

Turning to “VGFDPYDYEVNEADG (artificial peptide derived from Microciona prolifera) [Peptide B-2, 15 amino acid synthetic peptide, derived from MAF]”, the “100% Inhibition of Cell Motility” value in assay [1] (MAFp3 peptides) lay in the range of 50 to 100 µg/mL.

As for `CC(=O)NC1C(OC2C(O)C(C)OC(O)C2O)OC(CO)C(OC2OC3COC(C)(C(=O)O)OC3C(O)C2O)C1O` (stereo not shown) [RR-5 trisaccharides, (4,6-Pyr)Galβ1-4GlcNAcβ1-3Fuc], the “100% Inhibition of Cell Motility” value in assay [1] (setting [2]) came out at 25 µg/mL. Consider “NGSIGPRGLPGVRGDRGKRGK (artificial peptide derived from Microciona prolifera) [Peptide B-11]”, for which the “100% Inhibition of Cell Motility” value in assay [1] (MAFp3 peptides) is listed as 75˜100 μg/ml.

For “RFVINITTSGSD (artificial peptide derived from Microciona prolifera) [Peptide B-9, 12 amino acid synthetic peptide derived from MAF]”, the “100% Inhibition of Cell Motility” value in assay [1] (MAFp3 peptides) stood at 20 µg/mL. Moreover, in the assay on EAE mouse model, the “clinical signs of MS symptoms” value was “significant attenuation” and the mean clinical score is reported as 0.6.
